Literature values as cited in US20190000853A1, “ANTIVIRAL 4-(2-AMINO-6-HETEROCYLYL-9H-PURIN-9-YL)-2-CYCLOPENTENE-1 -METHANOL COMPOUNDS” (THE UNIVERSITY OF LIVERPOOL, priority 2015, published 2019).

Test system: HIV-1
Settings: literature comparison with Abacavir

Nc1nc(N2CCC2)c2ncn([C@H]3C=C[C@@H](CO)C3)c2n1 [ABC1-4]
Antiviral potency relative to Abacavir: equipotent to Abacavir
